Data: US20250009819A1, “NOVEL PROBIOTICS AND USE THEREOF” (PBLBIOLAB CO., LTD., priority 2021, published 2025)

How the values were obtained:
[1] = Antioxidant activity (DPPH, in vitro); format: biochemical; conditions: DPPH 0.2 mM; lactic acid bacteria suspension 1×10^8 CFU/ml; 37° C. 20 min
Method: DPPH (2,2-Diphenyl-1-picrylhydrazyl) was dissolved in ethanol to a concentration of 0.2 mM to prepare DPPH solution. Lactic acid bacteria suspension (1×10^8 CFU/ml) or vitamin C solution (1 g/ml) was added to 0.1 ml of the above DPPH solution and incubated at 37° C. for 20 min. The culture was centrifuged at 3000 rpm for 5 min to obtain a supernatant. The absorbance of the supernatant was then measured at 517 nm and the antioxidant activity of the lactic acid bacteria was calculated.

TNF-α = TNF-α expression in LPS-treated macrophages (ELISA); format: cell-based, C57BL/6 mice; conditions: macrophages treated with lactic acid bacteria and LPS for 24 hours
Method: (§1) C57BL/6 mice (male, 6 weeks old, 20-23 g) were subjected to an intraperitoneal injection of 2 ml of sterile 4% thioglycolate solution, and after 96 hours, the mice were anesthetized and injected with 8 ml of RPMI 1640 medium through the peritoneal cavity. Then, after 5-10 minutes, the RPMI medium (macrophages) in the mouse peritoneal cavity was extracted, centrifuged at 1000 g for 10 minutes, and washed again with RPMI 1640 medium twice. Macrophages were seeded in 24-well plates at a count of 0.5×10^6 in each well, and treated with lactic acid bacteria and LPS, an inflammatory response-inducing substance, for 24 hours. TNF-α and IL-10 cytokine expression amount in the culture supernatant was then measured by ELISA Kit.

IL-10 = IL-10 expression in LPS-treated macrophages (ELISA); format: cell-based, C57BL/6 mice; conditions: macrophages treated with lactic acid bacteria and LPS for 24 hours
Method: as §1

BDNF = BDNF expression in SH-SY5Y cells; format: cell-based; conditions: LPS 200 ng/ml; lactic acid bacteria 1×10^4 CFU/ml; 24 h
Method: (§2) SH-SY5Y cells obtained from the Korean Cell Line Bank were cultured in DMEM medium supplemented with 10% FBS and 1% antibiotics, and dispensed at 2×10^6 cells per well in a 12-well plate. Then, LPS (200 ng/ml) was added to each well along with lactic acid bacteria (1×10^4 CFU/ml) and incubated for 24 h. The cells and supernatants were collected, sonicated and centrifuged, and the amount of BDNF in the supernatant was measured by ELISA kit.

Neuropeptide Y (NPY) = Neuropeptide Y (NPY) expression in PC12 phaeochromocytoma cells; format: cell-based; conditions: LPS 200 ng/ml; lactic acid bacteria 1×10^4 CFU/ml; 24 hr
Method: as §2, with “PC12” for “SH-SY5Y”, “1×10^6” for “2×10^6”, “hr.” for “h.”, “NPY” for “BDNF”

Clostridium difficile = Clostridium difficile proliferation in gut microbiota (PCR); format: cell-based; conditions: human feces culture; lactic acid bacteria 1×10^6 CFU/mL; anaerobic 24 hr
Method: Fresh human feces were suspended in anaerobic medium (GAM, Nissui Pharmaceutical Co., Ltd., Japan) and allowed to stand for 10 min. The supernatant was diluted with 10,000-fold anaerobic medium, 0.05 mL of the dilution was transplanted into 5 mL of freshly made anaerobic medium, and lactic acid bacteria (1×10^6 CFU/mL) were implanted and incubated anaerobically for 24 hr. This culture medium was divided into two, one was centrifuged (5000 rpm, 20 minutes), the precipitated DNA was isolated using the QIAamp DNA stool mini kit (Qiagen, Germany), and Clostridium difficile (primer: forward, 5′-[…]-3′ (SEQ ID NO: 4); reverse, 5′-[…]-3′ (SEQ ID NO: 5) was quantified by PCR. The reaction product was first treated at 95° C. for 30 seconds, followed by 42 cycles of 5 seconds at 95° C. and 30 seconds at 72° C. for analysis. In addition, one culture medium was sonicated, centrifuged, and filter-sterilized, and the amount of LPS in the supernatant was measured using an ELISA kit.

gut microbiota = assay: LPS production in gut microbiota (ELISA); format: cell-based; conditions: human feces culture; lactic acid bacteria 1×10^6 CFU/mL; anaerobic 24 hr
Method: Fresh human feces were suspended in anaerobic medium (GAM, Nissui Pharmaceutical Co., Ltd., Japan) and allowed to stand for 10 min. The supernatant was diluted with 10,000-fold anaerobic medium, 0.05 mL of the dilution was transplanted into 5 mL of freshly made anaerobic medium, and lactic acid bacteria (1×10^6 CFU/mL) were implanted and incubated anaerobically for 24 hr.

| Substance | Antioxidant activity [1] | Macrophage Inhibition of TNF-α expression (TNF-α) | Macrophage Induction of IL-10 expression (IL-10) | SHSY5Y cell Induction of BDNF expression (BDNF) | PC12 cell Induction of NPY expression (Neuropeptide Y (NPY)) | Gut microbiota Inhibition of difficile bacteria proliferation (Clostridium difficile) | Gut microbiota Inhibition of LPS production (gut microbiota) |
| --- | --- | --- | --- | --- | --- | --- | --- |
| Bifidobacterium catenulatum NK227 | + (weakly (+; >20-60%)) | + (weakly (+; >20-60%)) | + (weakly (+; >20-60%)) | − (not or less than 20% (−; <20%)) | + (weakly (+; >20-60%)) | + (weakly (+; >20-60%)) | + (weakly (+; >20-60%)) |
| Bifidobacterium infantis NK213 | + (weakly (+; >20-60%)) | + (weakly (+; >20-60%)) | + (weakly (+; >20-60%)) | − (not or less than 20% (−; <20%)) | − (not or less than 20% (−; <20%)) | + (weakly (+; >20-60%)) | − (not or less than 20% (−; <20%)) |
| Bifidobacterium infantis NK214 | ++ (strongly (++; >60-90%)) | − (not or less than 20% (−; <20%)) | − (not or less than 20% (−; <20%)) | − (not or less than 20% (−; <20%)) | + (weakly (+; >20-60%)) | + (weakly (+; >20-60%)) | + (weakly (+; >20-60%)) |
| Bifidobacterium infantis NK215 | ++ (strongly (++; >60-90%)) | + (weakly (+; >20-60%)) | + (weakly (+; >20-60%)) | − (not or less than 20% (−; <20%)) | + (weakly (+; >20-60%)) | + (weakly (+; >20-60%)) | + (weakly (+; >20-60%)) |
| Bifidobacterium longum NK216 | ++ (strongly (++; >60-90%)) | − (not or less than 20% (−; <20%)) | − (not or less than 20% (−; <20%)) | − (not or less than 20% (−; <20%)) | + (weakly (+; >20-60%)) | − (not or less than 20% (−; <20%)) | ++ (strongly (++; >60-90%)) |
| Bifidobacterium longum NK218 | + (weakly (+; >20-60%)) | − (not or less than 20% (−; <20%)) | − (not or less than 20% (−; <20%)) | + (weakly (+; >20-60%)) | + (weakly (+; >20-60%)) | + (weakly (+; >20-60%)) | + (weakly (+; >20-60%)) |
| Bifidobacterium pseudocatenulatum NK228 | + (weakly (+; >20-60%)) | − (not or less than 20% (−; <20%)) | − (not or less than 20% (−; <20%)) | + (weakly (+; >20-60%)) | + (weakly (+; >20-60%)) | − (not or less than 20% (−; <20%)) | ++ (strongly (++; >60-90%)) |
| Bifidobacterium pseudocatenulatum NK230 | + (weakly (+; >20-60%)) | − (not or less than 20% (−; <20%)) | − (not or less than 20% (−; <20%)) | + (weakly (+; >20-60%)) | + (weakly (+; >20-60%)) | + (weakly (+; >20-60%)) | + (weakly (+; >20-60%)) |
| Lactobacillus casei NK193 | + (weakly (+; >20-60%)) | + (weakly (+; >20-60%)) | + (weakly (+; >20-60%)) | + (weakly (+; >20-60%)) | − (not or less than 20% (−; <20%)) | − (not or less than 20% (−; <20%)) | + (weakly (+; >20-60%)) |
| Lactobacillus casei NK194 | ++ (strongly (++; >60-90%)) | − (not or less than 20% (−; <20%)) | + (weakly (+; >20-60%)) | + (weakly (+; >20-60%)) | + (weakly (+; >20-60%)) | + (weakly (+; >20-60%)) | + (weakly (+; >20-60%)) |
| Lactobacillus casei NK195 | + (weakly (+; >20-60%)) | + (weakly (+; >20-60%)) | + (weakly (+; >20-60%)) | − (not or less than 20% (−; <20%)) | − (not or less than 20% (−; <20%)) | + (weakly (+; >20-60%)) | − (not or less than 20% (−; <20%)) |
| Lactobacillus casei NK196 | ++ (strongly (++; >60-90%)) | − (not or less than 20% (−; <20%)) | − (not or less than 20% (−; <20%)) | − (not or less than 20% (−; <20%)) | + (weakly (+; >20-60%)) | + (weakly (+; >20-60%)) | + (weakly (+; >20-60%)) |
| Lactobacillus gasseri NK185 | ++ (strongly (++; >60-90%)) | + (weakly (+; >20-60%)) | + (weakly (+; >20-60%)) | − (not or less than 20% (−; <20%)) | + (weakly (+; >20-60%)) | + (weakly (+; >20-60%)) | − (not or less than 20% (−; <20%)) |
| Lactobacillus gasseri NK186 | + (weakly (+; >20-60%)) | + (weakly (+; >20-60%)) | + (weakly (+; >20-60%)) | − (not or less than 20% (−; <20%)) | − (not or less than 20% (−; <20%)) | + (weakly (+; >20-60%)) | + (weakly (+; >20-60%)) |
| Lactobacillus gasseri NK187 | + (weakly (+; >20-60%)) | + (weakly (+; >20-60%)) | − (not or less than 20% (−; <20%)) | + (weakly (+; >20-60%)) | − (not or less than 20% (−; <20%)) | + (weakly (+; >20-60%)) | + (weakly (+; >20-60%)) |
